For twelve compounds, melting point and Ki results are on record in US9255101B2 (BIOPROJECT, priority 2012, dated 2016).

Series [1] concerns the target human H4 receptor (Homo sapiens, UniProt Q9H3N8). Kind of series: biochemical.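 Also: radioligand displacement of a [3H]-labelled ligand from membranes of CHO cells stably expressing human H4 receptor, bound radioactivity counted on filters by liquid scintillation.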

Sequence of human H4 receptor (Q9H3N8 whole entry): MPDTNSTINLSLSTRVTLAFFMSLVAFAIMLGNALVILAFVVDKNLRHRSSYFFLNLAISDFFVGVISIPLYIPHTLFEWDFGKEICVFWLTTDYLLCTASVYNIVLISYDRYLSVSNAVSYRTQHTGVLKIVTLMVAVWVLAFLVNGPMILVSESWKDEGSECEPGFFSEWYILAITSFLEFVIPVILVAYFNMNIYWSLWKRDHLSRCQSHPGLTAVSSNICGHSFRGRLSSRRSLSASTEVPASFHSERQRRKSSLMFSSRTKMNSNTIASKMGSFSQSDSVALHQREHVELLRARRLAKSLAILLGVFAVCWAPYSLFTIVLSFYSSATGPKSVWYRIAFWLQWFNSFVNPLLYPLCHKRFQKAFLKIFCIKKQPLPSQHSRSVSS

Broadly, the melting point is the temperature, or range, at which the solid turns liquid. As a reminder, the Ki is the equilibrium dissociation constant of an inhibitor or competing ligand from its target. Read a high Ki as a looser hold on the target. For the compound `Cc1c(C(=O)N(C)Cc2ccccc2)nc2n1CCc1ccccc1C2OC1CCN(C)CC1` (stereo not drawn) [Example 203, 1-methyl-4-(1-methylpiperidin-4-yloxy)-9,10-dihydro-4H-3,10a-diaza-benzo[f]azulene-2-carboxylic acid benzylmethylamide], the melting point is 61 °C. The same compound gave an inhibition constant (Ki) in series [1] of less than 1 µM.

Turning to `Cc1c(C(=O)N(C)c2ccccc2)nc2n1CCc1ccccc1C2OC1CCN(C)CC1` (stereo not drawn) [Example 204, 1-methyl-4-(1-methylpiperidin-4-yloxy)-9,10-dihydro-4H-3,10a-diaza-benzo[f]azulene-2-carboxylic acid methylphenylamide], the melting point was 75 °C. Besides, the Ki in series [1] was less than 1 µM.

Turning to `CCCNC(=O)c1nc2n(c1C)CCc1ccccc1C2OC1CCN(C)CC1` (stereo not drawn) [Example 205, 1-methyl-4-(1-methylpiperidin-4-yloxy)-9,10-dihydro-4H-3,10a-diaza-benzo[f]azulene-2-carboxylic acid propylamide], the melting point is 60 °C. The compound also showed a Ki in series [1] of less than 1 µM.

The compound `CN1CCC(OC2c3ccccc3CCn3c2nc(I)c3C#N)CC1` (stereo not drawn) [Example 221, 2-iodo-4-(1-methylpiperidin-4-yloxy)-9,10-dihydro-4H-3,10a-diaza-benzo[f]azulene-1-carbonitrile] showed a melting point of 195 °C. Moreover, the Ki in series [1] was less than 1 µM.

`CN1CCC(OC2c3ccccc3CCn3c2nc(-c2ccc(C(=O)OC(C)(C)C)cc2)c3C#N)CC1` (stereo not drawn) [Example 224, 4-[1-cyano-4-(1-methylpiperidin-4-yloxy)-9,10-dihydro-4H-3,10a-diaza-benzo[f]azulen-2-yl]-benzoic acid tert-butyl ester] yielded a melting point of 95 °C. The compound further came in with a Ki in series [1] of less than 0.03 µM.

`CN1CCC(OC2c3ccccc3CC(C)(C)n3cc(-c4ccccc4)nc32)CC1` (stereo not drawn) [Example 230, 10,10-dimethyl-4-(1-methylpiperidin-4-yloxy)-2-phenyl-9,10-dihydro-4H-3,10a-diaza-benzo[f]azulene] came in with a melting point of 85 °C. The same compound came in with a Ki in series [1] of less than 1 µM.

The compound `CN1CCC(OC2c3cccc(Br)c3CCn3cc(-c4ccccc4)nc32)CC1` (stereo not drawn) [Example 231, 8-Bromo-4-(1-methyl-piperidin-4-yloxy)-2-phenyl-9,10-dihydro-4H-3,10a-diaza-benzo[f]azulene] displayed a melting point of 83 °C. Also, in series [1], the Ki is less than 0.3 µM.

`CN1CCC(OC2c3cccc(Cc4ccccc4)c3CCn3cc(-c4ccccc4)nc32)CC1` (stereo not drawn) [Example 233, 8-benzyl-4-(1-methylpiperidin-4-yloxy)-2-phenyl-9,10-dihydro-4H-3,10a-diaza-benzo[f]azulene] registered a melting point of 66 °C. Also, the Ki in series [1] is less than 1 µM.

The compound `CSc1cccc2c1CCn1cc(-c3ccccc3)nc1C2OC1CCN(C)CC1` (stereo not drawn) [Example 234, 4-(1-methylpiperidin-4-yloxy)-8-methylsulfanyl-2-phenyl-9,10-dihydro-4H-3,10a-diaza-benzo[f]azulene] came in with a melting point of 134 °C. In series [1], this compound had a Ki of less than 1 µM.

Turning to `Cc1cccc2c1CCn1cc(-c3ccccc3)nc1C2OC1CCN(C)CC1` (stereo not drawn) [Example 236, 8-methyl-4-(1-methylpiperidin-4-yloxy)-2-phenyl-9,10-dihydro-4H-3,10a-diaza-benzo[f]azulene], the melting point was found to be 71 °C. In series [1], this compound yielded a Ki of less than 0.3 µM.

As for `C=CCCc1cccc2c1CCn1cc(-c3ccccc3)nc1C2OC1CCN(C)CC1.O=C(O)C(=O)O` (stereo not drawn) [Example 237, 8-but-3-enyl-4-(1-methylpiperidin-4-yloxy)-2-phenyl-9,10-dihydro-4H-3,10a-diaza-benzo[f]azulene, oxalate], the melting point turned out to be 107 °C. Moreover, the inhibition constant Ki in series [1] was less than 1 µM.

In the case of `CCCc1c(-c2ccccc2)nc2n1CCc1ccccc1C2OC1CCN(C)CC1` (stereo not drawn) [Example 238, 4-(1-methylpiperidin-4-yloxy)-2-phenyl-1-propyl-9,10-dihydro-4H-3,10a-diaza-benzo[f]azulene], the melting point came out at 144 °C. Besides, the Ki in series [1] is less than 0.3 µM.
